According to PubChem BioAssay (NCI):
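Grown in 96-well plates, cells were treated for 48 hours with each compound at five concentrations. Insufficient inhibition: endpoint recorded as highest concentration tested. TGI: concentration producing complete growth inhibition.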

Experiments:
Test in all cases: inhibition of tumour cell growth, NCI panel, 48 h
[1] = tested on: NCI-H460 lung
[2] = tested on: HCC-2998 colon
[3] = tested on: OVCAR-8 ovarian
[4] = tested on: MCF7 breast
[5] = tested on: K-562 leukemia
[6] = tested on: SNB-19 CNS
[7] = tested on: HCT-116 colon
[8] = tested on: KM12 colon
[9] = tested on: HOP-92 NSCLC
[10] = tested on: HT29 colon
[11] = tested on: SK-MEL-28 melanoma
[12] = tested on: ACHN renal
[13] = tested on: HCT-15 colon
[14] = tested on: BT-549 breast
[15] = tested on: HS 578T breast
[16] = tested on: NCI-H226 lung
[17] = tested on: NCI-H522 lung
[18] = tested on: U251 CNS
[19] = tested on: LOX IMVI melanoma
[20] = tested on: TK-10 renal
[21] = tested on: SK-MEL-2 melanoma
[22] = tested on: SK-OV-3 ovarian
[23] = tested on: A498 renal
[24] = tested on: 786-0 renal
[25] = tested on: NCI/ADR-RES ovarian
[26] = tested on: DU-145 prostate
[27] = tested on: CAKI-1 renal
[28] = tested on: COLO 205 colon
[29] = tested on: SK-MEL-5 melanoma
[30] = tested on: SW-620 colon
[31] = tested on: MDA-N
[32] = tested on: PC-3 prostate
[33] = tested on: SF-539 CNS
[34] = tested on: MDA-MB-435
[35] = tested on: UACC-257 melanoma
[36] = tested on: RXF 393 renal
[37] = tested on: EKVX NSCLC
[38] = tested on: SR leukemia
[39] = tested on: T-47D breast
[40] = tested on: SF-268 CNS
[41] = tested on: OVCAR-4 ovarian
[42] = tested on: IGROV1 ovarian
[43] = tested on: OVCAR-3 ovarian
[44] = tested on: MDA-MB-231 breast
[45] = tested on: MOLT-4 leukemia
[46] = tested on: HL-60(TB) leukemia
[47] = tested on: UO-31 renal
[48] = tested on: HOP-62 NSCLC
[49] = tested on: CCRF-CEM leukemia
[50] = tested on: M14 melanoma
[51] = tested on: NCI-H23 lung
[52] = tested on: SNB-75 CNS
[53] = tested on: MALME-3M melanoma
[54] = tested on: OVCAR-5 ovarian
[55] = tested on: UACC-62 melanoma
[56] = tested on: RPMI-8226 leukemia
[57] = tested on: SN12C renal
[58] = tested on: A549 NSCLC
[59] = tested on: SF-295 CNS

SMILES: CC(C)=CC(Cc1ccccc1)S(=O)(=O)c1nc2ccccc2s1 (stereo not drawn)
- TGI [1]: 50.1 µM
- TGI [2]: 33.6 µM
- TGI [3]: 35.1 µM
- TGI [4]: 31.5 µM
- TGI [5]: 33.4 µM
- TGI [6]: 32 µM
- TGI [7]: 28.3 µM
- TGI [8]: 35.8 µM
- TGI [9]: 41.7 µM
- TGI [10]: 41.7 µM
- TGI [11]: 32.3 µM
- TGI [12]: 42.9 µM
- TGI [13]: 49.5 µM
- TGI [14]: 38.6 µM
- TGI [15]: > 80 µM
- TGI [16]: 29.6 µM
- TGI [17]: 29 µM
- TGI [18]: 29.4 µM
- TGI [19]: 11.9 µM
- TGI [20]: 35.8 µM
- TGI [21]: 28.5 µM
- TGI [22]: 47.5 µM
- TGI [23]: 35.5 µM
- TGI [24]: 33.1 µM
- TGI [25]: 50 µM
- TGI [26]: 31.5 µM
- TGI [27]: 22.1 µM
- TGI [28]: 34.9 µM
- TGI [29]: 27.1 µM
- TGI [30]: 37.2 µM
- TGI [31]: 29.7 µM
- TGI [32]: 31.9 µM
- TGI [33]: 30.8 µM
- TGI [34]: 32.4 µM
- TGI [35]: 54.2 µM
- TGI [36]: 41.9 µM
- TGI [37]: 41.7 µM
- TGI [38]: 5.24 µM
- TGI [39]: > 67.2 µM
- TGI [40]: 36.5 µM
- TGI [41]: 37.1 µM
- TGI [42]: 62.7 µM
- TGI [43]: 29.2 µM
- TGI [44]: 52 µM
- TGI [45]: 7.95 µM
- TGI [46]: 9.62 µM
- TGI [47]: 27.5 µM
- TGI [48]: 64.3 µM
- TGI [49]: 7.49 µM
- TGI [50]: 31.2 µM
- TGI [51]: 48.8 µM
- TGI [52]: 41.1 µM
- TGI [53]: 32.1 µM
- TGI [54]: 36.7 µM
- TGI [55]: 46.5 µM
- TGI [56]: 35 µM
- TGI [57]: 31.8 µM
- TGI [58]: 60.1 µM
- TGI [59]: 66.6 µM

SMILES: COc1cc(NCCC2CCCCN2)c2ncccc2c1 (stereo not drawn)
- TGI [1]: > 100 µM
- TGI [2]: 30.7 µM
- TGI [3]: > 100 µM
- TGI [4]: 1.96 µM
- TGI [5]: > 66.3 µM
- TGI [6]: > 100 µM
- TGI [7]: > 67.6 µM
- TGI [8]: > 100 µM
- TGI [9]: > 100 µM
- TGI [10]: > 100 µM
- TGI [11]: > 59.8 µM
- TGI [12]: > 100 µM
- TGI [13]: > 100 µM
- TGI [14]: > 100 µM
- TGI [15]: > 100 µM
- TGI [16]: 97.9 µM
- TGI [17]: > 100 µM
- TGI [18]: > 100 µM
- TGI [19]: > 100 µM
- TGI [20]: > 100 µM
- TGI [21]: > 91.1 µM
- TGI [22]: > 100 µM
- TGI [23]: > 89.6 µM
- TGI [24]: > 100 µM
- TGI [25]: > 100 µM
- TGI [26]: > 100 µM
- TGI [27]: > 100 µM
- TGI [28]: 28.6 µM
- TGI [29]: > 55.4 µM
- TGI [30]: > 100 µM
- TGI [31]: > 100 µM
- TGI [32]: > 100 µM
- TGI [33]: > 100 µM
- TGI [34]: > 67.2 µM
- TGI [35]: 41.1 µM
- TGI [36]: 77 µM
- TGI [37]: > 100 µM
- TGI [38]: > 81.3 µM
- TGI [39]: 4.83 µM
- TGI [40]: > 100 µM
- TGI [41]: > 100 µM
- TGI [42]: > 100 µM
- TGI [43]: > 62.7 µM
- TGI [44]: > 92.1 µM
- TGI [45]: > 68.6 µM
- TGI [46]: 19.1 µM
- TGI [47]: > 100 µM
- TGI [48]: > 100 µM
- TGI [49]: > 66.3 µM
- TGI [50]: 44.9 µM
- TGI [51]: > 100 µM
- TGI [52]: > 100 µM
- TGI [53]: > 57.6 µM
- TGI [54]: > 100 µM
- TGI [55]: > 59.9 µM
- TGI [56]: > 68.1 µM
- TGI [57]: > 77.2 µM
- TGI [58]: > 100 µM
- TGI [59]: > 100 µM
